Structures can show the parent of a compound that is named as a salt.

The text below walks through data of patent publication US5721219A, “N-alkyl-2-substituted ATP analogues and administration to inhibit platelet aggregation” (Astra Pharmaceuticals Ltd., priority 1993, dated 1998).

In one assay the target is T1, P2T receptor (Homo sapiens, UniProt Q9H244).
T1 construct: activity in washed human platelets; endogenous in cells; host or cells: washed human platelets from venous blood of donors
Put plainly: P2T receptor agonist/antagonist activity in washed human platelets (inhibition of ADP-induced aggregation). It is filed as cell-based. The following applies: submaximal ADP, 15 min incubation with test compound, 8-SPT present, % inhibition of control ADP response giving approximate IC50, read-out: pIC50 (negative logarithm of the antagonist potency) (converted). How it is done:
Quantification of P2T receptor aganoist/antagonist activity in washed human platelets Human venous blood (100 ml) was divided equally between 3 tubes, each containing 3.2% trisodium citrate (4 ml) as anti-coagulant. The tubes were centrifuged for 15 min at 240G to obtain a platelet-rich plasma (PRP) to which 300 ng.ml^-1 prostacyclin (PGI2, 3 μl.ml^-1 PRP of 1/10 diln. in saline from stock 1 mg/ml^-1 in ethanol) was added to stabilize the platelets during the washing procedure. Red cell free PRP was obtained by centrifugation for 10 min at 125G followed by further centrifugation for 15 min at 640G. The supernatant was discarded and the platelet pellet resuspended in modified, calcium free, Tyrode solution [(10 ml) CFT, composition: NaCl 137 mM (8 g.l^-1), NaHCO3 11.9 mM (1 g.l^-1), NaH2 PO, 0.38 mM (0.06 g.l^-1), KCl 2.86 mM (1 ml of 20% soln.l^-1), MgCl2 1.05 mM (1 ml of 10% soln.l^-1), dextrose 5.55 mM (1 g.l^-1)], gassed with 95% O2 /5% CO2 and maintained at 37°. Following addition of a further 300 ng.ml^-1PGI2, the pooled suspension was centrifuged once more for 15 min at 640G. The supernatant was discarded and the platelets resuspended initially in 10 ml CFT with further CFT added to adjust the final platelet count to 2×10^5.μl^-1. This final suspension was stored in a 60 ml syringe at 3° with air excluded.
To allow recovery from PGI2 -inhibition of normal function, platelets were used in aggregation studies no sooner than 2 hours after final resuspension. […]
A concentration of ADP producing a just submaximal response was selected by constructing a concentration/response curve over the range 10-300 μM. the appropriate solution of ADP was added to the aggregation cuvette in a volume of 10 μl, 20 min after starting the aggregation trace. Aggregation responses were measured using the maximum rate of change in light transmission, an index given by the PAP4 slope-reader. […]

For a further assay, the system named is platelet aggregation. The following applies: Cusack and Hourani, Nucleosides & Nucleotides 1991; cited from earlier work.
Another assay deals with guinea pig taenia coli. The following applies: Maguire and Satchell 1979; cited from earlier work.

T1 sequence (Q9H244 whole entry): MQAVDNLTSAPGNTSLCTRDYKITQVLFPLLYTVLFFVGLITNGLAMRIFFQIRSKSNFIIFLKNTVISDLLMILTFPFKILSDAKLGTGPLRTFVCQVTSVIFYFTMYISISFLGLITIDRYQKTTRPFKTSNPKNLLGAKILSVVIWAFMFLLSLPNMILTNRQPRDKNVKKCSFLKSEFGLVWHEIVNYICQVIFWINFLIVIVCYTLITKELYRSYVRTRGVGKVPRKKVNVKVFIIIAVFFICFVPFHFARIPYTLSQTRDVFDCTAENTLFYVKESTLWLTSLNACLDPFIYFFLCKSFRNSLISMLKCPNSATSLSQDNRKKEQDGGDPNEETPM

Take `CCCSc1nc(NCC)c2ncn([C@@H]3O[C@H](COP(=O)(O)OP(=O)(O)C(Cl)(Cl)P(=O)(O)O)[C@@H](O)[C@H]3O)c2n1` [Example 1, N-Ethyl-2-(propylthio)-5'-adenylic acid, monoanhydride with dichloromethylenebisphosphonic acid, tetrasodium salt]: at P2T receptor, the IC50 is 0.912 nM.

As for `CCNc1nc(SCCC(F)(F)F)nc2c1ncn2[C@@H]1O[C@H](COP(=O)(O)OP(=O)(O)C(Cl)(Cl)P(=O)(O)O)[C@@H](O)[C@H]1O` [Example 5, N-Ethyl-2-[(3,3,3-trifluoropropyl)thio]-5'-adenylic acid, monoanhydride with dichloromethylenebisphosphonic acid, trisodium salt], the IC50 on P2T receptor is 2.09 nM.

Take `CSc1nc(N)c2ncn([C@@H]3O[C@H](COP(=O)(O)OP(=O)(O)CP(=O)(O)O)[C@@H](O)[C@H]3O)c2n1` [2-methylthio-5'-adenylic acid, monoanhydride with methylenebisphosphonic acid]: the “inhibition of ADP-α-S induced platelet aggregation” value with platelet aggregation was “inhibits”.

For `Nc1nc(Cl)nc2c1ncn2[C@@H]1O[C@H](COP(=O)(O)OP(=O)(O)CP(=O)(O)O)[C@@H](O)[C@H]1O` [2-chloro-5'-adenylic acid, monoanhydride with methylenebisphosphonic acid], in the assay on guinea pig taenia coli, the “inhibition of guinea pig taenia coli” value is recorded as “inhibition”.

As to `O=P(O)(OC[C@H]1O[C@@H](n2cnc3c(NCC(F)(F)F)nc(SCCC(F)(F)F)nc32)[C@H](O)[C@@H]1O)OP(=O)(O)C(Cl)(Cl)P(=O)(O)O` [Example 6a, N-(2,2,2-Trifluoroethyl)-2-[(3,3,3-trifluoropropyl)thio]-5'-adenylic acid, monoanhydride with dichloromethylenebisphosphonic acid, triammonium salt], the IC50 on P2T receptor was 0.724 nM.
